Measured values from the supplement of paper PMC10883282.
Where a name gives a salt, the structure may show the parent alone. ± gives the standard deviation of the averaged measurements.

Test system: SW982
Test: relative viability vs DMSO control (72 h) (fraction); higher = more viable cells
How it was run: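 Sarcoma cell lines were grown in 384-well plates seeded toward 80–90% confluence and exposed 24 h later to serially diluted compound. After 72 h at 37 °C and 5% CO2, with 0.1% DMSO vehicle and a 5 µM positive control on the plates, ATPLite was read. Relative viability, given as percent growth averaged over up to triplicate wells, was rescaled so that 1 is full and 0 is none.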

SMILES | relative viability (0.00017 µM) | relative viability (0.00051 µM) | relative viability (0.00152 µM) | relative viability (0.00457 µM) | relative viability (0.01372 µM) | relative viability (0.04115 µM) | relative viability (0.1235 µM) | relative viability (0.3704 µM) | relative viability (1.111 µM) | relative viability (3.333 µM) | relative viability (10 µM) | relative viability (2 pM) | relative viability (5 pM) | relative viability (15 pM) | relative viability (50 pM) | relative viability (0.00014 µM) | relative viability (0.00041 µM) | relative viability (0.0012 µM) | relative viability (0.0037 µM) | relative viability (0.011 µM) | relative viability (200 fM) | relative viability (600 fM)
Cc1ccc(F)c(NC(=O)Nc2ccc(-c3cccc4[nH]nc(N)c34)cc2)c1 [Linifanib] | 1.03 ± 0.027 | 1.08 ± 0.024 | 1.05 ± 0.035 | 1.07 ± 0.032 | 1.03 ± 0.021 | 1.06 ± 0.043 | 1.06 ± 0.019 | 1.08 ± 0.04 | 1.1 ± 0.036 | 1.12 ± 0.015 | 1.12 ± 0.04 |  |  |  |  |  |  |  |  |  |  | 
CC(C)N1CCN(Cc2cnc(-c3cc(-c4cccc5[nH]ccc45)cc4[nH]ncc34)o2)CC1 [Nemiralisib] | 0.946 ± 0.032 | 0.961 ± 0.044 | 0.918 ± 0.042 | 0.923 ± 0.038 | 0.954 ± 0.012 | 0.93 ± 0.061 | 0.916 ± 0.033 | 0.89 ± 0.056 | 0.805 ± 0.039 | 0.654 ± 0.032 | 0.275 ± 0.014 |  |  |  |  |  |  |  |  |  |  | 
COCc1c(-c2cc3cc(C)cc(OC)c3s2)c2c(N)ncnn2c1CN1CCNC(=O)C1 [Rogaratinib] | 1.05 ± 0.019 | 1.06 ± 0.028 | 1.07 ± 0.058 | 1.06 ± 0.012 | 1.06 ± 0.027 | 1.07 ± 0.028 | 1.06 ± 0.065 | 1.06 ± 0.044 | 0.996 ± 0.024 | 0.728 ± 0.023 | 0.362 ± 0.0075 |  |  |  |  |  |  |  |  |  |  | 
Cc1cc(Nc2ncnc3ccc(NC4=NC(C)(C)CO4)cc23)ccc1Oc1ccn2ncnc2c1 [Tucatinib] | 1.05 ± 0.062 | 1.11 ± 0.02 | 1.1 ± 0.022 | 1.09 ± 0.031 | 1.078 ± 0.0072 | 1.088 ± 0.0077 | 1.08 ± 0.035 | 1.059 ± 0.01 | 1.08 ± 0.046 | 1.1 ± 0.044 | 1.06 ± 0.026 |  |  |  |  |  |  |  |  |  |  | 
O=C(Nc1cnn2ccc(N3CCC[C@@H]3c3cc(F)ccc3F)nc12)N1CC[C@H](O)C1 [Larotrectinib] | 1.02 ± 0.015 | 1 ± 0.022 | 1.01 ± 0.036 | 1.07 ± 0.026 | 1.07 ± 0.031 | 1.058 ± 0.0089 | 1.05 ± 0.025 | 1.02 ± 0.019 | 1.05 ± 0.027 | 1.05 ± 0.032 | 1.01 ± 0.02 |  |  |  |  |  |  |  |  |  |  | 
CN1CCC(COc2cnc(-c3cccc(Cn4nc(-c5cccc(C#N)c5)ccc4=O)c3)nc2)CC1 [Tepotinib] | 1.02 ± 0.025 | 1.07 ± 0.027 | 1.051 ± 0.0014 | 1.07 ± 0.029 | 1.04 ± 0.019 | 1.06 ± 0.019 | 1.062 ± 0.0073 | 1.03 ± 0.035 | 1.04 ± 0.059 | 1.02 ± 0.027 | 0.777 ± 0.025 |  |  |  |  |  |  |  |  |  |  | 
C[C@@H]1CCN(C(=O)CC#N)C[C@@H]1N(C)c1ncnc2[nH]ccc12 [Tofacitinib] | 1.01 ± 0.036 | 1.05 ± 0.03 | 1.04 ± 0.03 | 1.03 ± 0.031 | 1.07 ± 0.037 | 1.03 ± 0.05 | 1.05 ± 0.05 | 1.06 ± 0.035 | 1.05 ± 0.042 | 1.04 ± 0.034 | 0.93 ± 0.081 |  |  |  |  |  |  |  |  |  |  | 
N#CC[C@H](C1CCCC1)n1cc(-c2ncnc3[nH]ccc23)cn1 [Ruxolitinib] | 0.96 ± 0.072 | 0.971 ± 0.05 | 0.964 ± 0.049 | 0.949 ± 0.054 | 0.939 ± 0.058 | 0.919 ± 0.061 | 0.915 ± 0.019 | 0.879 ± 0.02 | 0.842 ± 0.015 | 0.7741 ± 0.005 | 0.614 ± 0.022 |  |  |  |  |  |  |  |  |  |  | 
C=CC(=O)N1CCC[C@@H](n2nc(-c3ccc(Oc4ccccc4)cc3)c3c(N)ncnc32)C1 [Ibrutinib] | 1.02 ± 0.016 | 1.06 ± 0.039 | 1.07 ± 0.011 | 1.05 ± 0.035 | 1.03 ± 0.033 | 1.05 ± 0.02 | 1.05 ± 0.035 | 1.06 ± 0.051 | 1.08 ± 0.036 | 1.04 ± 0.027 | 0.845 ± 0.044 |  |  |  |  |  |  |  |  |  |  | 
COc1c(OCCCN2CCOCC2)ccc2c1N=C(NC(=O)c1cnc(N)nc1)N1CCN=C21 [Copanlisib] | 1.04 ± 0.024 | 1.02 ± 0.022 | 1.04 ± 0.043 | 0.881 ± 0.016 | 0.797 ± 0.032 | 0.704 ± 0.029 | 0.529 ± 0.01 | 0.391 ± 0.019 | 0.213 ± 0.011 | 0.177 ± 0.0066 | 0.177 ± 0.0061 |  |  |  |  |  |  |  |  |  |  | 
COc1cccc2c1C(=O)c1c(O)c3c(c(O)c1C2=O)C[C@@](O)(C(=O)CO)C[C@@H]3O[C@H]1C[C@H](N)[C@H](O)[C@H](C)O1 [Doxorubicin Hydrochloride] | 1.05 ± 0.0095 | 1.05 ± 0.057 | 1.07 ± 0.025 | 1.04 ± 0.035 | 0.796 ± 0.022 | 0.457 ± 0.025 | 0.326 ± 0.019 | 0.1607 ± 0.0012 | 0.127 ± 0.0062 | 0.165 ± 0.005 | 0.139 ± 0.0092 |  |  |  |  |  |  |  |  |  |  | 
CO[C@H]1C[C@@H]2CC[C@@H](C)[C@@](O)(O2)C(=O)C(=O)N2CCCC[C@H]2C(=O)O[C@H]([C@H](C)C[C@@H]2CC[C@@H](OP(C)(C)=O)[C@H](OC)C2)CC(=O)[C@H](C)/C=C(\C)[C@@H](O)[C@@H](OC)C(=O)[C@H](C)C[C@H](C)/C=C/C=C/C=C/1C [Ridaforolimus] | 1.05 ± 0.027 | 0.956 ± 0.041 | 0.867 ± 0.06 | 0.825 ± 0.066 | 0.755 ± 0.074 | 0.711 ± 0.036 | 0.679 ± 0.015 | 0.652 ± 0.028 | 0.652 ± 0.019 | 0.619 ± 0.0085 | 0.634 ± 0.03 |  |  |  |  |  |  |  |  |  |  | 
COc1cc2nccc(Oc3ccc(NC(=O)Nc4cc(C)on4)c(Cl)c3)c2cc1OC [Tivozanib] | 1.06 ± 0.039 | 1.07 ± 0.048 | 1.06 ± 0.021 | 1.05 ± 0.037 | 1.08 ± 0.038 | 1.07 ± 0.033 | 1.08 ± 0.017 | 1.08 ± 0.046 | 1.07 ± 0.058 | 0.985 ± 0.029 | 0.571 ± 0.021 |  |  |  |  |  |  |  |  |  |  | 
C[C@@H](c1ccc2nccn2c1)n1nnc2ncc(-c3cnn(C)c3)nc21 [Volitinib] | 1.05 ± 0.02 | 1.07 ± 0.012 | 1.05 ± 0.012 | 1.05 ± 0.056 | 1.07 ± 0.03 | 1.06 ± 0.022 | 1.03 ± 0.021 | 1.07 ± 0.016 | 1.04 ± 0.034 | 1.07 ± 0.011 | 1.06 ± 0.025 |  |  |  |  |  |  |  |  |  |  | 
COc1cc2c(cc1O)CCN[C@]21CS[C@@H]2c3c(OC(C)=O)c(C)c4c(c3[C@H](COC1=O)N1[C@@H]2[C@H]2c3c(cc(C)c(OC)c3O)C[C@@H]([C@@H]1O)N2C)OCO4 [Trabectedin] |  |  |  |  |  |  |  |  |  |  |  | 0.929 ± 0.036 | 0.86 ± 0.035 | 0.765 ± 0.031 | 0.639 ± 0.034 | 0.385 ± 0.021 | 0.266 ± 0.0099 | 0.194 ± 0.0051 | 0.186 ± 0.0075 | 0.1406 ± 0.00098 | 0.987 ± 0.031 | 0.9423 ± 0.004
Cc1nc(-c2cn3c(n2)-c2ccc(-c4cnn(C(C)(C)C(N)=O)c4)cc2OCC3)n(C(C)C)n1 [Taselisib] | 1.03 ± 0.045 | 1.04 ± 0.023 | 1.02 ± 0.043 | 1.02 ± 0.02 | 1.02 ± 0.034 | 0.968 ± 0.02 | 0.898 ± 0.026 | 0.7957 ± 0.0075 | 0.633 ± 0.035 | 0.506 ± 0.016 | 0.339 ± 0.02 |  |  |  |  |  |  |  |  |  |  | 
COc1cc2c(Oc3ccc4[nH]c(C)cc4c3F)ncnc2cc1OCCCN1CCCC1 [Cediranib] | 1.04 ± 0.034 | 1.058 ± 0.007 | 1.06 ± 0.044 | 1.06 ± 0.027 | 1.06 ± 0.031 | 1.04 ± 0.013 | 1.06 ± 0.029 | 0.967 ± 0.07 | 0.914 ± 0.077 | 0.959 ± 0.012 | 0.961 ± 0.01 |  |  |  |  |  |  |  |  |  |  | 
Cc1nc(NC(=O)N2CCC[C@H]2C(N)=O)sc1-c1ccnc(C(C)(C)C(F)(F)F)c1 [Alpelisib] | 0.989 ± 0.04 | 0.929 ± 0.033 | 0.98 ± 0.021 | 0.95 ± 0.02 | 0.997 ± 0.014 | 0.959 ± 0.055 | 0.964 ± 0.031 | 0.927 ± 0.052 | 0.845 ± 0.026 | 0.725 ± 0.022 | 0.596 ± 0.026 |  |  |  |  |  |  |  |  |  |  | 
COc1cc2/c(=N/c3ccc(Br)cc3F)nc[nH]c2cc1OCC1CCN(C)CC1 [Vandetanib] | 0.997 ± 0.044 | 1 ± 0.035 | 0.977 ± 0.021 | 1.01 ± 0.033 | 1.01 ± 0.078 | 1.03 ± 0.041 | 0.983 ± 0.075 | 0.873 ± 0.077 | 0.699 ± 0.084 | 0.291 ± 0.032 | 0.0207 ± 0.0067 |  |  |  |  |  |  |  |  |  |  | 
